Laboratory results from US20210227843A1, “A TEMPERING COMPOSITION FOR TEMPERING GRAIN AND CONTROLLING PATHOGENS IN AND/OR ON SAID GRAIN, AN OXIDIZING COMPOSITION FOR PREPARING SAID TEMPERING COMPOSITION, A USE OF SAID TEMPERING COMPOSITION AND A METHOD OF USE OF SAID TEMPERING COMPOSITION” (AGRI-NEO INC., priority 2017, published 2021).

Test: Flour functionality, sensory and physical characteristics after tempering wheat in an organic flour mill (Example 1)
Conditions: 2 L per ton of wheat (citric acid 2 Kg); 16 h hold

## O=C(O)CC(O)(CC(=O)O)C(=O)O [Citric acid]
  MIXOLAB Stability: 13.5 min

## CC(O)C(=O)O (centres unmarked) [Lactic acid]
  MIXOLAB Stability: 17.5 min
